The target of the first test is T1, full length AKT E17K (Homo sapiens, UniProt P31749, E17K).
T1 construct: host or cells: HEK-293 (ATCC CRL-1573)
T1 sequence (P31749 whole entry E17K): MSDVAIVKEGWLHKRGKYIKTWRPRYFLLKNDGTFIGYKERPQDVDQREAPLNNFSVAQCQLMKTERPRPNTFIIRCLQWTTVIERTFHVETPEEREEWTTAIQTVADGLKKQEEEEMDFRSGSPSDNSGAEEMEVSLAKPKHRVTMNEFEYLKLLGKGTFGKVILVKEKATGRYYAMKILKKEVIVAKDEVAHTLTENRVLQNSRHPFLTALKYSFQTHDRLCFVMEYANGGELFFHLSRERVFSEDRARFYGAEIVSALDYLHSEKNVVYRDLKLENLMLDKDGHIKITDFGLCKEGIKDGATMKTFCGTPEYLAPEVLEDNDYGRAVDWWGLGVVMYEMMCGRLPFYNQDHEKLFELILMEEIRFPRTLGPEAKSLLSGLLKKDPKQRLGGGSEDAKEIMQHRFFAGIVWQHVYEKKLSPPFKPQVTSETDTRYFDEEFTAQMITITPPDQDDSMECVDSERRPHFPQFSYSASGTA
In words: NanoBRET Target Engagement (TE) Assay. The conditions noted are these: competitive displacement of tracer in cells, read-out: AKT1 E17K IC50. The format is cell-based. From the text:
The NanoBRET™ Target Engagement (TE) Intracellular Kinase Assays are based on the NanoBRET™ System (Promega Corporation), an energy transfer technique designed to measure molecular proximity in living cells. The NanoBRET™ TE Assays measure the apparent affinity of test compounds by competitive displacement of the NanoBRET™ tracer compound, which is a cell permeable molecule engineered to be reversibly bound to a NanoLuc® luciferase-kinase fusion expressed in cells. For compound screening, when a test compound binds to the selected kinase, the BRET signal is attenuated. […] All cells were evaluated for viability prior to transfection and optimization of the transfection was done prior to experimentation. […] Following transfection, cells were washed and resuspended in Opti-MEM. NanoBRET assays were performed in white, 384-well plates (Corning) at a density of […]. All example compounds were prepared as concentrated stock solutions in DMSO (Sigma-Aldrich). Compounds are dissolved in DMSO to make 10 mM stock solution. […] A Labcyte ECHO 550 compound dispenser was used to facilitate compound transfer directly to cells. Cells were equilibrated for 2 hr with energy transfer probes and example compound prior to BRET measurements. […] For target engagement analysis, the energy transfer probes were added to the cells at concentrations optimized for the target in question (AKT E17K). Following compound incubation, NanoBRET NanoGlo Substrate (Promega Cat #N157D) and Extracellular Nanoluc Inhibitor (Promega Cat #N235C) was added according to the manufacturer's recommended protocol, and luminescence was measured on Envision Reader (Perkin Elmer) Multimode Luminometer equipped with 450 nm BPfilter (donor) and 600 nm LPfilter (acceptor), using 0.5 s integration time. Milli-BRET units (mBU) are calculated by multiplying the raw BRET values by 1000. Apparent tracer affinity values (EC50) were determined using the sigmoidal dose-response (variable slope).
Competitive displacement data were then plotted and data were fit to determine the EC50 value for each example compound.
On to `N#Cc1nccc(NC2CCN(Cc3ccc(-n4c(-c5cccnc5N)nc5ccc([C@@H]6CCOC6)nc54)cc3)CC2)n1` (single isomer, unassigned) [Example 506], for which the IC50 was less than 15 nM. As for `N#Cc1nccc(NC2CCN(Cc3ccc(-n4c(-c5cccnc5N)nc5ccc([C@H]6CCOC6)nc54)cc3)CC2)n1` (single isomer, unassigned) [Example 507], the IC50 is less than 15 nM.

Still in this test, the particulars now being: competitive tracer displacement in living cells, read-out: AKT1 E17K IC50.
Take `N#Cc1ccc(OC2CCN(Cc3ccc(-n4c(-c5cccnc5N)nc5cccnc54)cc3)CC2)nc1` [Example 1, 6-((1-(4-(2-(2-Aminopyridin-3-yl)-3H-imidazo[4,5-b]pyridin-3-yl)benzyl)piperidin-4-yl)oxy)nicotinonitrile]: the IC50 lay in the range of 600 to 10000 nM. Same read-out and setting: under `N#Cc1ccc(OC2CCN(Cc3ccc(-n4c(-c5cccnc5N)nc5ccc(-c6ccccc6)nc54)cc3)CC2)nc1` [Example 2, 6-((1-(4-(2-(2-Aminopyridin-3-yl)-5-phenyl-3H-imidazo[4,5-b]pyridin-3-yl)benzyl)piperidin-4-yl)oxy)nicotinonitrile] stands 60 to 600 nM. On the same count and under the same terms, next, `N#Cc1ccc(OC2CCN(Cc3ccc(-n4c(-c5cccnc5N)nc5cc(-c6ccccc6)cnc54)cc3)CC2)nc1` [Example 3, 6-((1-(4-(2-(2-aminopyridin-3-yl)-6-phenyl-3H-imidazo[4,5-b]pyridin-3-yl)benzyl)piperidin-4-yl)oxy)nicotinonitrile]: 600 to 10000 nM; `N#Cc1cccc(OC2CCN(Cc3ccc(-n4c(-c5cccnc5N)nc5cccnc54)cc3)CC2)n1` [Example 4, 6-((1-(4-(2-(2-Aminopyridin-3-yl)-3H-imidazo[4,5-b]pyridin-3-yl)benzyl)piperidin-4-yl)oxy)picolinonitrile]: 600 to 10000 nM. In the case of `N#Cc1ccnc(OC2CCN(Cc3ccc(-n4c(-c5cccnc5N)nc5cccnc54)cc3)CC2)c1` [Example 5, 2-((1-(4-(2-(2-aminopyridin-3-yl)-3H-imidazo[4,5-b]pyridin-3-yl)benzyl)piperidin-4-yl)oxy)isonicotinonitrile], the IC50 lay within 600 to 10000 nM. `N#Cc1cccnc1OC1CCN(Cc2ccc(-n3c(-c4cccnc4N)nc4cccnc43)cc2)CC1` [Example 6, 2-((1-(4-(2-(2-aminopyridin-3-yl)-3H-imidazo[4,5-b]pyridin-3-yl)benzyl)piperidin-4-yl)oxy)nicotinonitrile]: the IC50 was in the range of 600 to 10000 nM.

For `N#Cc1cccc(OC2CCN(Cc3ccc(-n4c(-c5cccnc5N)nc5ccc(-c6ccccc6)nc54)cc3)CC2)n1` [Example 7, 6-((1-(4-(2-(2-Aminopyridin-3-yl)-5-phenyl-3H-imidazo[4,5-b]pyridin-3-yl)benzyl)piperidin-4-yl)oxy)picolinonitrile], the IC50 lay in the range of 60 to 600 nM.

On to `N#Cc1ccnc(OC2CCN(Cc3ccc(-n4c(-c5cccnc5N)nc5ccc(-c6ccccc6)nc54)cc3)CC2)c1` [Example 8, 2-((1-(4-(2-(2-Aminopyridin-3-yl)-5-phenyl-3H-imidazo[4,5-b]pyridin-3-yl)benzyl)piperidin-4-yl)oxy)isonicotinonitrile], for which the IC50 lay within 600 to 10000 nM. In the case of `N#Cc1cccnc1OC1CCN(Cc2ccc(-n3c(-c4cccnc4N)nc4ccc(-c5ccccc5)nc43)cc2)CC1` [Example 9, 2-((1-(4-(2-(2-Aminopyridin-3-yl)-5-phenyl-3H-imidazo[4,5-b]pyridin-3-yl)benzyl)piperidin-4-yl)oxy)nicotinonitrile], the IC50 was in the range of 60 to 600 nM. Still for that read-out and setting: under `N#Cc1cccc(OC2CCN(Cc3ccc(-n4c(-c5cccnc5N)nc5cc(-c6ccccc6)cnc54)cc3)CC2)n1` [Example 10, 6-((1-(4-(2-(2-Aminopyridin-3-yl)-6-phenyl-3H-imidazo[4,5-b]pyridin-3-yl)benzyl)piperidin-4-yl)oxy)picolinonitrile] stands 600 to 10000 nM.

On to `N#Cc1ccnc(OC2CCN(Cc3ccc(-n4c(-c5cccnc5N)nc5cc(-c6ccccc6)cnc54)cc3)CC2)c1` [Example 11, 2-((1-(4-(2-(2-Aminopyridin-3-yl)-6-phenyl-3H-imidazo[4,5-b]pyridin-3-yl)benzyl)piperidin-4-yl)oxy)isonicotinonitrile], for which the concentration for half-maximal inhibition (IC50) was 600 to 10000 nM. `N#Cc1cccnc1OC1CCN(Cc2ccc(-n3c(-c4cccnc4N)nc4cc(-c5ccccc5)cnc43)cc2)CC1` [Example 12, 2-((1-(4-(2-(2-Aminopyridin-3-yl)-6-phenyl-3H-imidazo[4,5-b]pyridin-3-yl)benzyl)piperidin-4-yl)oxy)nicotinonitrile]: the IC50 was 600 to 10000 nM. On the same count and under the same terms, next, `N#Cc1cc(N2CCN(Cc3ccc(-n4c(-c5cccnc5N)nc5cccnc54)cc3)CC2)ccn1` [Example 13, 4-(4-(4-(2-(2-Aminopyridin-3-yl)-3H-imidazo[4,5-b]pyridin-3-yl)benzyl)piperazin-1-yl)picolinonitrile]: 600 to 10000 nM. On the same count and under the same terms, next, `N#Cc1ccc(N2CCN(Cc3ccc(-n4c(-c5cccnc5N)nc5cccnc54)cc3)CC2)cn1` [Example 14, 5-(4-(4-(2-(2-Aminopyridin-3-yl)-3H-imidazo[4,5-b]pyridin-3-yl)benzyl)piperazin-1-yl)picolinonitrile]: 600 to 10000 nM. Same read-out and setting: under `N#Cc1cccc(N2CCN(Cc3ccc(-n4c(-c5cccnc5N)nc5cccnc54)cc3)CC2)n1` [Example 15, 6-(4-(4-(2-(2-Aminopyridin-3-yl)-3H-imidazo[4,5-b]pyridin-3-yl)benzyl)piperazin-1-yl)picolinonitrile] stands 600 to 10000 nM; under `N#Cc1cncc(N2CCN(Cc3ccc(-n4c(-c5cccnc5N)nc5cccnc54)cc3)CC2)c1` [Example 16, 5-(4-(4-(2-(2-Aminopyridin-3-yl)-3H-imidazo[4,5-b]pyridin-3-yl)benzyl)piperazin-1-yl)nicotinonitrile], 600 to 10000 nM.

As to `N#Cc1ccnc(N2CCN(Cc3ccc(-n4c(-c5cccnc5N)nc5cccnc54)cc3)CC2)c1` [Example 17, 2-(4-(4-(2-(2-Aminopyridin-3-yl)-3H-imidazo[4,5-b]pyridin-3-yl)benzyl)piperazin-1-yl)isonicotinonitrile], the IC50 fell in the range of 600 to 10000 nM.

Take `N#Cc1nccc(N2CCN(Cc3ccc(-n4c(-c5cccnc5N)nc5cccnc54)cc3)CC2)n1` [Example 18, 4-(4-(4-(2-(2-Aminopyridin-3-yl)-3H-imidazo[4,5-b]pyridin-3-yl)benzyl)piperazin-1-yl)pyrimidine-2-carbonitrile]: the 50% inhibitory concentration (IC50) fell in the range of 60 to 600 nM. The same measure, in the same setting: next, `N#Cc1cncc(N2CCN(Cc3ccc(-n4c(-c5cccnc5N)nc5cccnc54)cc3)CC2)n1` [Example 19, 6-(4-(4-(2-(2-Aminopyridin-3-yl)-3H-imidazo[4,5-b]pyridin-3-yl)benzyl)piperazin-1-yl)pyrazine-2-carbonitrile]: 600 to 10000 nM; `N#Cc1ccnc(N2CCN(Cc3ccc(-n4c(-c5cccnc5N)nc5cccnc54)cc3)CC2)n1` [Example 20, 2-(4-(4-(2-(2-aminopyridin-3-yl)-3H-imidazo[4,5-b]pyridin-3-yl)benzyl)piperazin-1-yl)pyrimidine-4-carbonitrile]: 600 to 10000 nM.

Regarding `N#Cc1cc(N2CCN(Cc3ccc(-n4c(-c5cccnc5N)nc5cccnc54)cc3)CC2)ncn1` [Example 21, 6-(4-(4-(2-(2-Aminopyridin-3-yl)-3H-imidazo[4,5-b]pyridin-3-yl)benzyl)piperazin-1-yl)pyrimidine-4-carbonitrile], the IC50 lay within 60 to 600 nM.

Consider `N#Cc1cnnc(N2CCN(Cc3ccc(-n4c(-c5cccnc5N)nc5cccnc54)cc3)CC2)c1` [Example 22, 6-(4-(4-(2-(2-Aminopyridin-3-yl)-3H-imidazo[4,5-b]pyridin-3-yl)benzyl)piperazin-1-yl)pyridazine-4-carbonitrile], for which the IC50 fell in the range of 600 to 10000 nM. For the molecule `N#Cc1cc(C(=O)NC2CCN(Cc3ccc(-n4c(-c5cccnc5N)nc5cccnc54)cc3)CC2)ccn1` [Example 23, N-(1-(4-(2-(2-aminopyridin-3-yl)-3H-imidazo[4,5-b]pyridin-3-yl)benzyl)piperidin-4-yl)-2-cyanoisonicotinamide], the half-inhibitory concentration (IC50) is 600 to 10000 nM. With `N#Cc1ccc(C(=O)NC2CCN(Cc3ccc(-n4c(-c5cccnc5N)nc5cccnc54)cc3)CC2)cn1` [Example 24, N-(1-(4-(2-(2-Aminopyridin-3-yl)-3H-imidazo[4,5-b]pyridin-3-yl)benzyl)piperidin-4-yl)-6-cyanonicotinamide], the IC50 was in the range of 600 to 10000 nM. With `N#Cc1ccc(C(=O)NC2CCN(Cc3ccc(-n4c(-c5cccnc5N)nc5cccnc54)cc3)CC2)nc1` [Example 25, N-(1-(4-(2-(2-Aminopyridin-3-yl)-3H-imidazo[4,5-b]pyridin-3-yl)benzyl)piperidin-4-yl)-5-cyanopicolinamide], the half-inhibitory concentration (IC50) fell in the range of 600 to 10000 nM. The same measure, in the same setting: under `N#Cc1cncc(C(=O)NC2CCN(Cc3ccc(-n4c(-c5cccnc5N)nc5cccnc54)cc3)CC2)c1` [Example 26, N-(1-(4-(2-(2-aminopyridin-3-yl)-3H-imidazo[4,5-b]pyridin-3-yl)benzyl)piperidin-4-yl)-5-cyanonicotinamide] stands 600 to 10000 nM.

As usually defined, the IC50 is the midpoint of a concentration-inhibition curve.

Source of the values: patent publication US12209087B2, “AKT1 modulators” (Alterome Therapeutics, Inc., priority 2022, dated 2025).
